Patent US11000033B2, “Ketone or oxime compound, and herbicide” (NISSAN CHEMICAL CORPORATION, priority 2014, dated 2021)

Experiments:
Leptochloa chinensis = assay: Test Example 3: herbicidal effect by foliage application, Wagner pot (symbol D); format: in vivo; details: application herbicide amount 320 g/ha
In short: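 Alluvial soil was flooded to a depth of 0.1–0.5 cm, seeded with the weeds and rice, and kept in a greenhouse at 25–30 °C. After 14 days of growth, the foliage received a small-sprayer application of emulsion diluted to the intended rate; injury was rated at 3 weeks.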

| melting point | SMILES | herbicidal effect on D (Leptochloa chinensis), grade 0-5 (Leptochloa chinensis) |
| --- | --- | --- |
| 184 to 188 °C | CCc1cc(Br)cc(C)c1C1=C(O)CC(C(C(=O)OC)C(C)=NOC)C1=O (centres unmarked) [6-002] | 4 (Herbicidal ratio of 70% or higher and lower than 90%) |
| 164 to 166 °C | CON=C(C)CC1CC(O)=C(c2c(C)cc(Br)cc2C)C1=O (centres unmarked) [6-003] | 5 (Herbicidal ratio of 90% or more (almost completely withered)) |
| 122 to 125 °C | CCc1cc(C)cc(C)c1C1=C(O)CC(CC(C)=NOC)C1=O (centres unmarked) [6-007] | 5 (Herbicidal ratio of 90% or more (almost completely withered)) |
| 167 to 169 °C | CON=C(C)CC1CC(O)=C(c2c(C)cc(-c3ccccc3)cc2C)C1=O (centres unmarked) [6-015] | 5 (Herbicidal ratio of 90% or more (almost completely withered)) |
| 151 to 153 °C | CCc1cc(Br)cc(C)c1C1=C(O)CC(CC(C)=NOC)C1=O (centres unmarked) [6-001] | 5 (Herbicidal ratio of 90% or more (almost completely withered)) |
| – | CON=C(C)CC1CC(OCCSC)=C(c2c(C)cc(C)cc2C)C1=O (centres unmarked) [1-011] | 5 (Herbicidal ratio of 90% or more (almost completely withered)) |
| – | CON=C(C)CC1CC(O)=C(c2c(C)cc(-c3ccc(C)cc3)cc2C)C1=O (mixture of isomers) [6-018] | 5 (Herbicidal ratio of 90% or more (almost completely withered)) |
| – | CON=C(C)CC1CC(OCC#N)=C(c2c(C)cc(C)cc2C)C1=O (centres unmarked) [1-013] | 2 (Herbicidal ratio of 20% or higher and lower than 40%) |
| – | CON=C(C)CC1CC(OC(=O)c2ccccc2C(F)(F)F)=C(c2c(C)cc(C)cc2C)C1=O (centres unmarked) [1-154] | 5 (Herbicidal ratio of 90% or more (almost completely withered)) |
| – | CCOC(=O)C(CC)(C(C)=O)C1CC(O)=C(c2c(C)cc(C)cc2C)C1=O (centres unmarked) [2-012] | 0 (Herbicidal ratio of 5% or lower (almost no effect)) |
| – | CON=C(C)CC1CC(O)=C(c2c(C)cc(-c3ccc(OC)cc3)cc2C)C1=O (mixture of isomers) [6-017] | 5 (Herbicidal ratio of 90% or more (almost completely withered)) |
| – | CON=C(C)CC1CC(OC(=O)Cc2ccc(OC)cc2)=C(c2c(C)cc(C)cc2C)C1=O (centres unmarked) [1-156] | 5 (Herbicidal ratio of 90% or more (almost completely withered)) |
| – | CON=C(C)CC1CC(OS(=O)(=O)c2ccc(C)cc2)=C(c2c(C)cc(C)cc2C)C1=O (centres unmarked) [1-161] | 5 (Herbicidal ratio of 90% or more (almost completely withered)) |
| 165 to 172 °C | CON=C(C)CC1CC(O)=C(c2c(C)cc(OCC(F)(F)F)cc2C)C1=O (centres unmarked) [6-049] | 5 (Herbicidal ratio of 90% or more (almost completely withered)) |
| – | CON=C(C)CC1CC(O)=C(c2c(C)cc(-c3ccc(Cl)nc3)cc2C)C1=O (mixture of isomers) [6-035] | 5 (Herbicidal ratio of 90% or more (almost completely withered)) |
| – | CON=C(C)CC1CC(OC(=O)N(C)c2ccccc2)=C(c2c(C)cc(C)cc2C)C1=O (centres unmarked) [1-159] | 5 (Herbicidal ratio of 90% or more (almost completely withered)) |
| – | CON=C(C)CC1CC(O)=C(c2c(C)cc(C#CC3CC3)cc2C)C1=O (mixture of isomers) [6-010] | 5 (Herbicidal ratio of 90% or more (almost completely withered)) |
| – | CON=C(C)CC1CC(O)=C(c2c(C)cc(C(C)=O)cc2C)C1=O (centres unmarked) [6-026] | 5 (Herbicidal ratio of 90% or more (almost completely withered)) |
| – | CON=C(C)CC1CC(OC(=O)OCc2ccccc2)=C(c2c(C)cc(C)cc2C)C1=O (centres unmarked) [1-145] | 5 (Herbicidal ratio of 90% or more (almost completely withered)) |
| – | CON=C(C)CC1CC(OC(=O)c2ccc(S(C)(=O)=O)c(C(=O)OC)c2Cl)=C(c2c(C)cc(C)cc2C)C1=O (centres unmarked) [1-162] | 5 (Herbicidal ratio of 90% or more (almost completely withered)) |
| – | CON=C(C)CC1CC(O)=C(c2c(C)cc(C)cc2OC)C1=O (centres unmarked) [6-037, 3-hydroxy-2-(2-methoxy-4,6-dimethylphenyl)-5-{2-(methoxyimino)propyl}cyclopent-2-enone] | 5 (Herbicidal ratio of 90% or more (almost completely withered)) |
| – | Cc1cc(C)c(C2=C(O)CC(CC(=O)c3ccc(F)cc3)C2=O)c(C)c1 (centres unmarked) [2-032] | 3 (Herbicidal ratio of 40% or higher and lower than 70%) |
| – | C=CC(=O)CC1CC(O)=C(c2c(C)cc(C)cc2C)C1=O (centres unmarked) [2-031] | 5 (Herbicidal ratio of 90% or more (almost completely withered)) |
| – | CC(=O)C(C(C)=O)C1CC(O)=C(c2c(C)cc(C)cc2C)C1=O (centres unmarked) [2-002] | 0 (Herbicidal ratio of 5% or lower (almost no effect)) |
| – | CON=C(C)CC1CC(O)=C(c2c(C)cc(C#CCO)cc2C)C1=O (mixture of isomers) [6-025] | 5 (Herbicidal ratio of 90% or more (almost completely withered)) |
| – | CON=C(C)CC1CC(OS(=O)(=O)C2CC2)=C(c2c(C)cc(C)cc2C)C1=O (centres unmarked) [1-143] | 4 (Herbicidal ratio of 70% or higher and lower than 90%) |
